From patent US8058286B2, “Method for therapy of diarrhea-predominant irritable bowel disorders” (Toray Industries, Inc., priority 2005, dated 2011)
Structures can show the parent of a compound that is named as a salt.

Tested on: Rat Defecation Models Induced by Restraint Stress
Experiment: Rat defecation models induced by restraint stress (number of feces within 60 minutes)
Type: in vivo
From the text: The fact that the morphinan derivatives having the nitrogen-containing cyclic substituent, represented by Formula (I) and the pharmaceutically acceptable acid addition salts thereof are effective for functional bowel disorders may be confirmed by showing inhibitory action against transportation ability of large intestine, which ability has been increased by applying restraint stress. The inhibitory action against the increased transportation ability of large intestine may be confirmed by a reported method (Miyata K et. al., J. Pharmacol. Exp. Ther., 261, 297-303, 1992. or Kobayashi S et. al., Jpn. J. Pharmacol., 86, 281-8, 2001.), but the method is not restricted thereto.
A solvent or the Compound 1 was subcutaneously administered, and 15 minutes later, application of restraint stress was started. The number of feces within 60 minutes from the beginning of the application of the stress was counted and the effect was evaluated (one group consisted of 6 rats). The rats in a control group to which the restraint stress was not applied were merely moved to a new plastic cage.
In the group to which 5 w/v % xylitol solution containing 0.1 w/v % citric acid used as the solvent alone was administered, the rats to which the restraint stress was not applied defecated 1.0 feces on average within the 60 minutes, while the rats to which the restraint stress was applied defecated 6.5 feces on average, so that increase in the number of feces caused by the stress was observed.
Compounds 10, 11, 12 and 13 were evaluated in the same manner as in Example 1. In the group to which 5 w/v % xylitol solution containing 0.1 w/v % citric acid used as the solvent alone was administered, the rats to which the restraint stress was applied defecated 7.5 feces on average within the 60 minutes. The number of feces was decreased to 0.3 on average when 0.3 mg/kg of Compound 10 was administered, decreased to 4.2 on average when 1 mg/kg of Compound 11 was administered, decreased to 3.7 on average when 0.3 mg/kg of Compound 12 was administered, and decreased to 4.1 on average when 10 mg/kg of Compound 13 was administered.

[1] = 0.3 mg/kg subcutaneous 15 minutes before restraint stress, solvent group with stress 7.5

SMILES: O=C1c2ccccc2C(=O)N1[C@@H]1CC[C@@]2(O)[C@H]3Cc4ccc(O)c5c4[C@@]2(CCN3CC2CC2)[C@H]1O5 [Compound 1, N-(17-cyclopropylmethyl-4,5α-epoxy-3,14-dihydroxy-morphinan-6β-yl)-phthalimide]
- number of feces on average within 60 minutes from the beginning of restraint stress (0.15 mg/kg subcutaneous 15 minutes before restraint stress, solvent group with stress 6.5, without stress 1.0): 1.0
- activity to reduce the number of feces with respect to the solvent group (0.15 mg/kg subcutaneous, restraint stress, result in words): statistically significant activity to reduce the number of feces was observed

SMILES: O=C1C2=C(CCCC2)C(=O)N1[C@@H]1CC[C@@]2(O)[C@H]3Cc4ccc(O)c5c4[C@@]2(CCN3CC2CC2)[C@H]1O5 [Compound 10, N-(17-cyclopropylmethyl-4,5α-epoxy-3,14-dihydroxy-morphinan-6β-yl)-3,4,5,6-tetrahydrophthalimide•tartaric Acid Salt]
- number of feces on average within 60 minutes from the beginning of restraint stress [1]: 0.3

SMILES: O=C1c2cccc(F)c2CN1[C@@H]1CC[C@@]2(O)[C@H]3Cc4ccc(O)c5c4[C@@]2(CCN3CC2CC2)[C@H]1O5 [Compound 11, 2-(17-cyclopropylmethyl-4,5α-epoxy-3,14-dihydroxy-morphinan-6β-yl)-4-fluoro-2,3-dihydro-isoindole-1-one-methanesulfonic Acid Salt]
- number of feces on average within 60 minutes from the beginning of restraint stress (1 mg/kg subcutaneous 15 minutes before restraint stress, solvent group with stress 7.5): 4.2

SMILES: O=C1c2ccccc2S(=O)(=O)N1[C@@H]1CC[C@@]2(O)[C@H]3Cc4ccc(O)c5c4[C@@]2(CCN3CC2CC2)[C@H]1O5 [Compound 12, N-(17-cyclopropylmethyl-4,5α-epoxy-3,14-dihydroxy-morphinan-6β-yl)-O-sulfonbenzimide•tartaric Acid Salt]
- number of feces on average within 60 minutes from the beginning of restraint stress [1]: 3.7

SMILES: O=C1C=CC(=O)N1[C@@H]1CC[C@@]2(O)[C@H]3Cc4ccc(O)c5c4[C@@]2(CCN3CC2CC2)[C@H]1O5 [Compound 13, N-(17-cyclopropylmethyl-4,5α-epoxy-3,14-dihydroxy-morphinan-6β-yl)-maleimide•tartaric Acid Salt]
- number of feces on average within 60 minutes from the beginning of restraint stress (10 mg/kg subcutaneous 15 minutes before restraint stress, solvent group with stress 7.5): 4.1
